Paper PMC8698959, “A Combination of Structural, Genetic, Phenotypic and Enzymatic Analyses Reveals the Importance of a Predicted Fucosyltransferase to Protein O-Glycosylation in the Bacteroidetes” (Biomolecules, 2021)

Assays:
[1] = molecular target: T1, rBF4306 (FucT) (Bacteroides fragilis, UniProt Q5L7H9); assay: TLC and ESI-MS of fucosylated product; type: biochemical; conditions: 5 mM MgCl2, 5 mM MnCl2, pH 7.4, 37 °C, overnight
T1 construct: gene BF9343_4192; tag kept; partly degraded
Description: (§1) All three enzymes transferred L-Fuc to pNP-α-Gal

[2] = molecular target: T2, rPhep_4048 (FucT) (Pedobacter heparinus, UniProt C6XWF0); assay: TLC and ESI-MS of fucosylated product; type: biochemical; conditions: donor; acceptor pNP-α-D-Gal 8 mM, 5 mM MgCl2, 5 mM MnCl2, pH 7.4, 37 °C, overnight
T2 construct: gene Phep_4048; tag kept; partly degraded
T2 sequence (C6XWF0 1-252): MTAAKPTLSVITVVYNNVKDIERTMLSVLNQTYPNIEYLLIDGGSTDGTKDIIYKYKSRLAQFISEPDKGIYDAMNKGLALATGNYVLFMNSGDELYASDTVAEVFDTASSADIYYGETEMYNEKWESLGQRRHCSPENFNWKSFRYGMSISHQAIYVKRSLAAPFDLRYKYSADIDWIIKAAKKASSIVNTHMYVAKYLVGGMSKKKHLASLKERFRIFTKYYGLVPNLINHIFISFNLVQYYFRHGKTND
Description: as §1

T1 sequence (Q5L7H9 entry or part of it): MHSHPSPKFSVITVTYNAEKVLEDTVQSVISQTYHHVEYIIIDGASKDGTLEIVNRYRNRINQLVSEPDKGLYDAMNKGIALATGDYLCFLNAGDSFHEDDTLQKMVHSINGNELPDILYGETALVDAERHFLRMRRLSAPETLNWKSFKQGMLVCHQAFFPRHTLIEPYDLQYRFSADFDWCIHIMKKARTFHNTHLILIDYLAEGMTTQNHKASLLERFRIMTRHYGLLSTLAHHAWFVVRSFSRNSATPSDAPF

SMILES | TLC and ESI-MS of fucosylated product ([1]; donor, acceptor pNP-α-D-Glc 8 mM) | TLC and ESI-MS of fucosylated product [2] | TLC and ESI-MS of fucosylated product ([1]; 2 mM GDP-L-Fuc, 8 mM acceptor)
C[C@@H]1O[C@H](OP(=O)(O)OP(=O)(O)OC[C@H]2O[C@@H](n3cnc4c(=O)[nH]c(N)nc43)[C@H](O)[C@@H]2O)[C@@H](O)[C@H](O)[C@@H]1O [GDP-L-Fuc] | with GDP-L-Fuc serving as the Fuc donor. All three enzymes transferred L-Fuc to pNP-α-Gal | with GDP-L-Fuc serving as the Fuc donor. All three enzymes transferred L-Fuc to pNP-α-Gal | 
O=[N+]([O-])c1ccc(O[C@H]2O[C@H](CO)[C@@H](O)[C@H](O)[C@H]2O)cc1 [pNP-α-D-Glc] |  |  | rBF4306 demonstrated very low activity with all substrates; pNP-α-Glc was the best substrate
